According to patent publication US10894035B2, “Use of indole compounds to stimulate the immune system” (priority 2015, dated 2021):

Tests used:
sPLA2G1B = sPLA2G1B (Homo sapiens, UniProt P04054); assay: E. coli membrane sPLA2 activity assay ([3H]oleic acid release); format: biochemical
Protocol: The activity of compounds of formula A towards sPLA2G1B can be tested and verified using the E. coli membrane assay described below:
The assay is based on the ability of E. coli membranes to incorporate exogenously added fatty acids such as oleic acid (OA). The use of radiolabelled OA allows to follow the incorporation of this fatty acid into membrane phospholipids of E. Coli and its release upon PLA2-mediated hydrolysis of these membranes. Preincubation of the samples, before the assay, with a specific inhibitor or a neutralizing specific antibody directed against the given sPLA2 can indicate which sPLA2 type is detected.
An overnight culture of E. coli was diluted 1:20 in Luria Broth (LB) medium and incubated at 37° C. for 5 h with vigorous shaking in the presence of 1 mCi/ml [3H]OA (NET 289, NEN, 5 mCi/ml). […]
The reaction was carried out in a 37° C. water bath for 30 min and stopped with stop buffer containing 0.1 M EDTA and 0.2% free-fatty acids BSA. Then the tubes were centrifuged to spin down E. Coli membranes and aliquotes of supernatants were counted to monitor the [3H]OA released from these membranes. […]
The sPLA2 activity (A) is calculated as follows: A=A1−A2/B×100. […]
A is expressed as the % hydrolysis of the total radioactivity incorporated in the E. coli membranes.

sPLA2GIB = sPLA2GIB (Homo sapiens, UniProt P04054); assay: sPLA2 specificity panel (Table 1); format: biochemical; conditions: panel of secreted PLA2, result in words
sPLA2GIID = target: T1, sPLA2GIID (Homo sapiens, UniProt Q9UNK4); assay: sPLA2 specificity panel (Table 1); format: biochemical; conditions: panel of secreted PLA2, result in words
T1 sequence (Q9UNK4 21-145): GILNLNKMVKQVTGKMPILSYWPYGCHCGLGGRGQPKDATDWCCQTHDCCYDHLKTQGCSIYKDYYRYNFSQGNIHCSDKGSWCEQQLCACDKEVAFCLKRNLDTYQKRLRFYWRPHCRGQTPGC

sPLA2GIIE = target: T2, sPLA2GIIE (Homo sapiens, UniProt Q9NZK7); assay: sPLA2 specificity panel (Table 1); format: biochemical; conditions: panel of secreted PLA2, result in words
T2 sequence (Q9NZK7 20-142): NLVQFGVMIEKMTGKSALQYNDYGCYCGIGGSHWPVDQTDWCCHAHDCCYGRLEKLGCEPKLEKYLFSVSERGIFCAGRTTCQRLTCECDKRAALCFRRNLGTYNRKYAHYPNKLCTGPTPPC

sPLA2GV = target: T3, sPLA2GV (Homo sapiens, UniProt P39877); assay: sPLA2 specificity panel (Table 1); format: biochemical; conditions: panel of secreted PLA2, result in words
T3 sequence (P39877 21-138): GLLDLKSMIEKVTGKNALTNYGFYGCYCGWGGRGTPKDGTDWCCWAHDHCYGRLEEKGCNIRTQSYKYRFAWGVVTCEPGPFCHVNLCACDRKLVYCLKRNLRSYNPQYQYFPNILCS
From the text: IC50 values for a panel of secreted Phospholipase A2 (sPLA2) are shown.

sPLA2GIII = target: T4, sPLA2GIII (Homo sapiens, UniProt Q9NZ20); assay: sPLA2 specificity panel (Table 1); format: biochemical; conditions: panel of secreted PLA2, result in words
T4 sequence (Q9NZ20 20-509): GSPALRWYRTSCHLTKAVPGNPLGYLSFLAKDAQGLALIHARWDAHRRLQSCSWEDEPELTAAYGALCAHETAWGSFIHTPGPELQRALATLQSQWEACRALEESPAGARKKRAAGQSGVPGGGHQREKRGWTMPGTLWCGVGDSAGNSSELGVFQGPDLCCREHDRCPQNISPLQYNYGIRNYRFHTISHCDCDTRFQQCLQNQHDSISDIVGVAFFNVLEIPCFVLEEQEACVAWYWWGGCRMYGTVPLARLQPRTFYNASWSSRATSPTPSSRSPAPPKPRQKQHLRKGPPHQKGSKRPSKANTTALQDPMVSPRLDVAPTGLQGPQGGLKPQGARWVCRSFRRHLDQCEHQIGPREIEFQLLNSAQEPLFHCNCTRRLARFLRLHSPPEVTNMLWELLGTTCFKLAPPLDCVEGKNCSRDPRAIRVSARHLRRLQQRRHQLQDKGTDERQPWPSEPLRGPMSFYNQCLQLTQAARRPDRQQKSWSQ

sPLA2GXIIA = target: T5, sPLA2GXIIA (Homo sapiens, UniProt Q9BZM1); assay: sPLA2 specificity panel (Table 1); format: biochemical; conditions: panel of secreted PLA2, result in words
T5 sequence (Q9BZM1 23-189): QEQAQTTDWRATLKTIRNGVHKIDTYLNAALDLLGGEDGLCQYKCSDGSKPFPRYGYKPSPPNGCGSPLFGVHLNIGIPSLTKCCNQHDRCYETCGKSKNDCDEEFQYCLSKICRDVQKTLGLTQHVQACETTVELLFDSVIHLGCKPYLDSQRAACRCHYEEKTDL

Recombinant PLA2G1B = target: T6, Recombinant PLA2G1B (Homo sapiens, UniProt P04054); assay: Bioassay of IL-7-induced pSTAT5 nuclear translocation in CD4 T cells exposed to recombinant PLA2G1B; format: cell-based
T6 construct: made in house; host or cells: E. coli (inclusion bodies, urea-solubilized, renatured, HPLC-purified)
T6 sequence (P04054 23-148): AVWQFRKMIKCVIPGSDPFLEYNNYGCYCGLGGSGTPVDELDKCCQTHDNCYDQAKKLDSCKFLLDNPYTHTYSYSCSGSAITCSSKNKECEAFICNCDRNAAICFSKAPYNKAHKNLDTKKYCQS
Protocol: sPLA2G1B was produced in E. Coli. Inclusion bodies were solubilized in urea and afterwards renatured. sPLA2G1B was further purified by HPLC. Homogeneity of the preparations was verified by MassSpectrometry (Malditoff). The specific activity of the enzyme was always measured and compared to standard preparations.
(§1) Inhibition of IL-7-induced phosphorylated STAT5 nuclear translocation (NTpSTAT) was measured as follows: VP plasma (5 or 10%) was first incubated with purified HD CD4 T cells (20 min) before stimulation by IL-7 (2 nM, 15 min.). Cells were then plated on polylysine coated glass slides before fixation by PFA (1.5%) and permeabilization by methanol (90% at −20° C.). pSTAT5 was then stained by rabbit anti-STAT5 and labeled with goat anti-rabbit-Atto642. The cells were analyzed by pulsed STED microscopy and the number of nuclei expressing pSTAT5 were counted.
The experiment was repeated twice. From the experimental data we derived the corresponding theoretical curve that gives the IC50.

[1] = target: T7, sPLA2G1B contained in plasma of viremic patients (Homo sapiens, UniProt P04054); assay: Bioassay of IL-7-induced pSTAT5 nuclear translocation in healthy-donor CD4 T cells exposed to plasma/sera of viremic HIV-infected patients; format: cell-based; conditions: for reversion of inhibition of pSTAT5 nuclear translocation: 50 μM compound; for reversal of plasma/sera-induced inhibition of IL-7-induced NT pSTAT5: 50 microM compound
T7 construct: CD4 lymphocytes purified from healthy donors were exposed to sera from viremic HIV-infected patients at 3% dilution; from tissue; host or cells: plasma/sera of viremic HIV-infected patients, applied to CD4 T cells of healthy donors
T7 sequence (P04054 23-148): as above
Protocol: Five sera were tested and the results are given as the median +/−SD.
Viremic patients (VP) included in the study had been HIV-positive for more than one year. […] All blood samples from VP were drawn at Hôpital Bicêtre or Centre Hospitalier de Gonesse.
as §1
We have already shown that sPLA2G1B contained in plasma of viremic patients through induction of aMMD induces a blockade of IL-7-induced nuclear translocation of phospho STAT5 (NT pSTAT5).
The effects of plasma from various HIV viremic patients (at least 5) were first titrated on the inhibition of IL-7-induced NTpSTAT5. The inhibition is measurable at 1% dilution of the plasma and the effect is maximum at 10% of the plasma. Consequently, in the experiments we used the different plasma at 3% dilution which gives between 30 to 70% of the maximum inhibition. […] The inhibition obtained with the recombinant enzyme reaches a plateau corresponding to a maximum inhibition of around 80%. By contrast, the plateau obtained when the plasma is used is around 90% inhibition, or more (compare data of FIGS. 1 and 2 with data FIG. 3).
In a further study, the plasma from 5 additional HIV-infected patients was tested. […] 100% inhibition of nuclear translocation of pSTAT5 is observed (see FIG. 4).

[2] = recombinant PLA2G1B 75 nanoM, pre-exposed 30 mn to compound, FIG. 1

Chain of sPLA2GIB (P04054 23-148): as above
Chain of sPLA2G1B (P04054 23-148): as above

Question: `CCc1c(C(=O)C(N)=O)c2c(OCC(=O)O)cccc2n1Cc1ccccc1` [Compound B] was tested. Which “inhibitory effect on sPLA2G1B activity” value (sPLA2G1B) did it give?
Answer: particularly strong inhibitory effect

Question: What about the “IC50 sPLA2GIB” value (sPLA2GIB) of the same compound?
Answer: significant IC50

Question: What about the “IC50 sPLA2GIID” value (sPLA2GIID) of the same compound?
Answer: significant IC50

Question: What about the “IC50 sPLA2GIIE” value (sPLA2GIIE) of the same compound?
Answer: significant IC50

Question: And the “IC50 sPLA2GV” value (sPLA2GV)?
Answer: significant IC50

Question: And the “recognition/binding/activity towards sPLA2GIII (group III PLA2)” value (sPLA2GIII)?
Answer: does not recognize or bind

Question: What about the “recognition/binding/activity towards sPLA2GIII (group III PLA2)” value (sPLA2GIII; listed as compound B) of the same compound?
Answer: no activity

Question: And the “recognition/binding of sPLA2GXIIA” value (sPLA2GXIIA)?
Answer: does not recognize or bind

Question: And the IC50 (Recombinant PLA2G1B)?
Answer: 6.01 µM

Question: What about the “concentration at which inhibitory effects are maximum” value (Recombinant PLA2G1B; [2]) of the same compound?
Answer: 8 µM

Question: And the “concentration at which inhibitory effects begin” value (Recombinant PLA2G1B; [2])?
Answer: 5 µM

Question: And the “plateau, maximum inhibition” value (Recombinant PLA2G1B; recombinant enzyme in serum free buffer)?
Answer: around 80%

Question: What about the “reversion of inhibition of pSTAT5 nuclear translocation” value ([1]; 1% plasma, FIG. 4) of the same compound?
Answer: the reversion is complete

Question: What about the “reversion of inhibition of pSTAT5 nuclear translocation” value ([1]; 3% plasma, FIG. 4) of the same compound?
Answer: about 90%

Question: What about the “reversal of plasma/sera-induced inhibition of IL-7-induced NT pSTAT5” value ([1]; sera at 1% or 3% dilution, 5 additional patients, FIG. 4) of the same compound?
Answer: completely reverse this inhibition

Question: What about the “reversal of plasma/sera-induced inhibition of IL-7-induced NT pSTAT5” value ([1]; sera at 1% or 3% dilution, 5 additional patients, FIG. 4, listed as compound B) of the same compound?
Answer: totally reversed this inhibition

Question: And the “reversal of plasma/sera-induced inhibition of IL-7-induced NT pSTAT5” value ([1]; sera at 3% dilution, five sera, FIG. 3)?
Answer: revert the inhibitory activity of the plasma

Question: What about the “reversal of plasma/sera-induced inhibition of IL-7-induced NT pSTAT5” value ([1]; sera at 3% dilution, five sera, FIG. 3, listed as compound B) of the same compound?
Answer: totally reversed this inhibition

Question: What about the “plateau inhibition when plasma is used” value ([1]; plasma of viremic patients) of the same compound?
Answer: ≥ 90%
